Results taken from patent US20090029992A1, “SUBSTITUTED PYRAZOLE COMPOUNDS” (priority 2007, published 2009).

What was measured:
[1] = biological target: T1, N-terminal His6-tagged recombinant human KDR, residues 790-end (Homo sapiens, UniProt P35968); test: KDR kinase inhibition assay (33P-ATP filter assay); assay type: biochemical
T1 construct: recombinant human KDR, residues 790-end; His6 (N); purchased Upstate USA Inc, 706 Forest Street, Charlottesville, Va
How it was run: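 Radiometric filter assay: reaction started with Mg acetate (10 mM)/[γ-33P]ATP mix, run 40 min at room temperature in 8 mM MOPS pH 7.0 with 0.2 mM EDTA, MBP substrate (0.33 mg/mL) and recombinant KDR 790-end (5-10 mU). Phosphate incorporation by scintillation counting of P30 filtermats, compared with uninhibited reactions.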

[2] = biological target: T2, recombinant Aurora A (Homo sapiens, UniProt O14965); test: Aurora A (Aurora 2) inhibition assay, Z'-Lyte kinase assay; assay type: biochemical; conditions: group with IC50 greater than 100 nM; ATP 10 μM, 1 h
T2 construct: purchased Upstate, Lake Placid, N.Y
T2 sequence (O14965 1-403): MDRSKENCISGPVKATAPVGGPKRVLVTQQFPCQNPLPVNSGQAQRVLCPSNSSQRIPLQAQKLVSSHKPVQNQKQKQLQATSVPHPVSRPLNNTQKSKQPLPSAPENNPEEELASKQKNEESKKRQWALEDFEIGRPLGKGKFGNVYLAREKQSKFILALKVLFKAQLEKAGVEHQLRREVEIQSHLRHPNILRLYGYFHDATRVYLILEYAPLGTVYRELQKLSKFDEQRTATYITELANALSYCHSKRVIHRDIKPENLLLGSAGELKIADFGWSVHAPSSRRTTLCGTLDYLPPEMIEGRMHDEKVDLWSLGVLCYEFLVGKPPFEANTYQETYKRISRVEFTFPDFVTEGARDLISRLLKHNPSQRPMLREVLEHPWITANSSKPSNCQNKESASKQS
How it was run: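 Z'-Lyte FRET assay: Aurora A (200-500 ng/mL final), Ser/Thr 1 peptide (2 μM) and ATP (10 μM) in 50 mM HEPES pH 7.5, 10 mM MgCl2, 5 mM EGTA, 0.05% Brij-35, 2 mM DTT, 1 h at room temperature. Coumarin/fluorescein emission ratio converted to percent phosphorylation; dose-response curves plotted.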

[3] = group with IC50 greater than 100 nM

T1 sequence (P35968 790-1356 limits assumed): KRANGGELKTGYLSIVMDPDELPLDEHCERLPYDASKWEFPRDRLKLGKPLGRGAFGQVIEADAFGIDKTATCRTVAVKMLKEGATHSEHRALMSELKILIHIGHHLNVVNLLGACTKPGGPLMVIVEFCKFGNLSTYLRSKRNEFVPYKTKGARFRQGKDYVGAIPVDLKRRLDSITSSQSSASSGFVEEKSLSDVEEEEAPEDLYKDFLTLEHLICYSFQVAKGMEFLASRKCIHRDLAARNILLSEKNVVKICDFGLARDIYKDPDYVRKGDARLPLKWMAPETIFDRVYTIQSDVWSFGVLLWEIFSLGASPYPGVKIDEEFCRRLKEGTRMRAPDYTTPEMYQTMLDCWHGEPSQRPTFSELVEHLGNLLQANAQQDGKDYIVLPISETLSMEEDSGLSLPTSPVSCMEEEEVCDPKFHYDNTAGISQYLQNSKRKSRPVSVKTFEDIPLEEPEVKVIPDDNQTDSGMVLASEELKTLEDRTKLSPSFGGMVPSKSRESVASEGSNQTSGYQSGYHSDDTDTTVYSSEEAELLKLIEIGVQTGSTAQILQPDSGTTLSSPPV

Compound	IC50 [1, 3]	IC50 [2]	IC50 ([1]; 40 minutes at room temperature)
COCCN(C)c1cc(Nc2cc(C)[nH]n2)nc(-c2ccccc2Cl)n1 [Compound 63]	≤ 1000 nM	≤ 1000 nM	
COCCN(C)c1cc(Nc2cc(C)[nH]n2)nc(-c2cccc(C)c2)n1 [Compound 65, N^4-(2-methoxyethyl)-N^4-methyl-N^6-(5-methyl-1H-pyrazol-3-yl)-2-m-tolylpyrimidine-4,6-diamine]	≤ 1000 nM	≤ 1000 nM	
COCCN(C)c1cc(Nc2cc(C)[nH]n2)nc(-c2ccc(OC)cc2)n1 [Compound 67, N^4-(2-methoxyethyl)-2-(4-methoxyphenyl)-N^4-methyl-N^6-(5-methyl-1H-pyrazol-3-yl)pyrimidine-4,6-diamine]	≤ 1000 nM	≤ 1000 nM	
COCCN(C)c1cc(Nc2cc(C)[nH]n2)nc(-c2cccc(OC)c2)n1 [Compound 68, N^4-(2-methoxyethyl)-2-(3-methoxyphenyl)-N^4-methyl-N^6-(5-methyl-1H-pyrazol-3-yl)pyrimidine-4,6-diamine]	≤ 1000 nM	≤ 1000 nM	
Cc1cc(Nc2cc(NC3CCOCC3)nc(-c3ccc(C(C)(C)C)cc3)n2)n[nH]1 [Compound 70, 2-(4-tert-butylphenyl)-N^4-(5-methyl-1H-pyrazol-3-yl)-N^6-(tetrahydro-2H-pyran-4-yl)pyrimidine-4,6-diamine]	≤ 1000 nM	≤ 1000 nM	
Cc1cc(Nc2cc(NC3CCOCC3)nc(-c3ccc(C(F)(F)F)cc3)n2)n[nH]1 [Compound 79, N^4-(5-methyl-1H-pyrazol-3-yl)-N^6-(tetrahydro-2H-pyran-4-yl)-2-(4-(trifluoromethyl)phenyl)pyrimidine-4,6-diamine]		≤ 1000 nM	
Cc1cc(Nc2cc(NC3CCOCC3)nc(-c3cccc(C(F)(F)F)c3)n2)n[nH]1 [Compound 80, N^4-(5-methyl-1H-pyrazol-3-yl)-N^6-(tetrahydro-2H-pyran-4-yl)-2-(3-(trifluoromethyl)phenyl)pyrimidine-4,6-diamine]	≤ 1000 nM	≤ 1000 nM	
Cc1cc(Nc2cc(NC3CCOCC3)nc(-c3ccccc3C(F)(F)F)n2)n[nH]1 [Compound 81, N^4-(5-methyl-1H-pyrazol-3-yl)-N^6-(tetrahydro-2H-pyran-4-yl)-2-(2-(trifluoromethyl)phenyl)pyrimidine-4,6-diamine]	≤ 1000 nM	≤ 1000 nM	
Cc1cc(Nc2cc(N3CCN(C)CC3)nc(-c3cc(F)cc(Cl)c3)n2)n[nH]1 [Compound 97]	≤ 1000 nM	≤ 1000 nM	
Cc1cc(Nc2cc(N3CCN(C)CC3)nc(-c3ccc(C(F)(F)F)cc3)n2)n[nH]1 [Compound 100]		≤ 1000 nM	
Cc1cc(Nc2cc(N3CCN(C)CC3)nc(-c3ccccc3C(F)(F)F)n2)n[nH]1 [Compound 102, N-(5-methyl-1H-pyrazol-3-yl)-6-(4-methylpiperazin-1-yl)-2-(2-(trifluoromethyl)phenyl)pyrimidin-4-amine]		≤ 1000 nM	≤ 100 nM
Cc1cc(Nc2cc(N(C)CCN(C)C)nc(-c3ccc(C(C)(C)C)cc3)n2)n[nH]1 [Compound 103, 2-(4-tert-butylphenyl)-N^4-(2-(dimethylamino)ethyl)-N^4-methyl-N^6-(5-methyl-1H-pyrazol-3-yl)pyrimidine-4,6-diamine]	≤ 1000 nM	≤ 1000 nM	
Cc1cc(Nc2cc(N(C)CCN(C)C)nc(-c3cccc(N(C)C)c3)n2)n[nH]1 [Compound 107]		≤ 1000 nM	≤ 100 nM
Cc1cc(Nc2cc(N(C)CCN(C)C)nc(-c3cccc(C(F)(F)F)c3)n2)n[nH]1 [Compound 113, N^4-(2-(dimethylamino)ethyl)-N^4-methyl-N^6-(5-methyl-1H-pyrazol-3-yl)-2-(3-(trifluoromethyl)phenyl)pyrimidine-4,6-diamine]	≤ 1000 nM	≤ 1000 nM	
COCCN(C)c1cc(Nc2cc(C)[nH]n2)nc(-c2ccc(N(C)C)cc2)n1 [Compound 118, 2-(4-(dimethylamino)phenyl)-N^4-(2-methoxyethyl)-N^4-methyl-N^6-(5-methyl-1H-pyrazol-3-yl)pyrimidine-4,6-diamine]	≤ 1000 nM	≤ 1000 nM	
COCCN(C)c1cc(Nc2cc(C)[nH]n2)nc(-c2cccc(C(F)(F)F)c2)n1 [Compound 125, N^4-(2-methoxyethyl)-N^4-methyl-N^6-(5-methyl-1H-pyrazol-3-yl)-2-(3-(trifluoromethyl)phenyl)pyrimidine-4,6-diamine]	≤ 1000 nM	≤ 1000 nM	
COCCN(C)c1cc(Nc2cc(C)[nH]n2)nc(-c2ccccc2C(F)(F)F)n1 [Example 126, N^4-(2-methoxyethyl)-N^4-methyl-N^6-(5-methyl-1H-pyrazol-3-yl)-2-(2-(trifluoromethyl)phenyl)pyrimidine-4,6-diamine]	≤ 1000 nM	≤ 1000 nM	
Cc1cc(Nc2cc(NC3CCOCC3)nc(-c3cccc4ccccc34)n2)n[nH]1 [Example 127, N^4-(5-methyl-1H-pyrazol-3-yl)-2-(naphthalen-1-yl)-N^6-(tetrahydro-2H-pyran-4-yl)pyrimidine-4,6-diamine]	≤ 1000 nM	≤ 1000 nM	
Cc1cc(Nc2cc(N3CCN(C)CC3)nc(-c3cccc4c3OCCO4)n2)n[nH]1 [Example 136, 2-(2,3-dihydrobenzo[b][1,4]dioxin-5-yl)-N-(5-methyl-1H-pyrazol-3-yl)-6-(4-methylpiperazin-1-yl)pyrimidin-4-amine]	≤ 1000 nM	≤ 1000 nM	
Cc1cc(Nc2cc(N(C)CCN(C)C)nc(-c3ccc4ccccc4c3)n2)n[nH]1 [Example 142, N^4-(2-(dimethylamino)ethyl)-N^4-methyl-N^6-(5-methyl-1H-pyrazol-3-yl)-2-(naphthalen-2-yl)pyrimidine-4,6-diamine]	≤ 1000 nM	≤ 1000 nM	
Cc1cc(Nc2cc(N(C)CCN(C)C)nc(-c3ccc4c(c3)OCO4)n2)n[nH]1 [Example 146, 2-(benzo[d][1,3]dioxol-5-yl)-N^4-(2-(dimethylamino)ethyl)-N^4-methyl-N^6-(5-methyl-1H-pyrazol-3-yl)pyrimidine-4,6-diamine]	≤ 1000 nM	≤ 1000 nM	
COCCN(C)c1cc(Nc2cc(C)[nH]n2)nc(-c2cccc3ccccc23)n1 [Example 148, N^4-(2-methoxyethyl)-N^4-methyl-N^6-(5-methyl-1H-pyrazol-3-yl)-2-(naphthalen-1-yl)pyrimidine-4,6-diamine]	≤ 1000 nM	≤ 1000 nM	
COCCN(C)c1cc(Nc2cc(C)[nH]n2)nc(-c2ccc3ccccc3c2)n1 [Example 149, N^4-(2-methoxyethyl)-N^4-methyl-N^6-(5-methyl-1H-pyrazol-3-yl)-2-(naphthalen-2-yl)pyrimidine-4,6-diamine]	≤ 1000 nM	≤ 1000 nM	
COCCN(C)c1cc(Nc2cc(C)[nH]n2)nc(-c2cccc3c2OCCO3)n1 [Example 150, 2-(2,3-dihydrobenzo[b][1,4]dioxin-5-yl)-N^4-(2-methoxyethyl)-N^4-methyl-N^6-(5-methyl-1H-pyrazol-3-yl)pyrimidine-4,6-diamine]	≤ 1000 nM	≤ 1000 nM	
Cc1cc(Nc2cc(N3CCN(C)CC3)nc(-c3ccc(-c4ccccc4)cc3)n2)n[nH]1 [Example 157, 2-(biphenyl-4-yl)-N-(5-methyl-1H-pyrazol-3-yl)-6-(4-methylpiperazin-1-yl)pyrimidin-4-amine]	≤ 1000 nM	≤ 1000 nM	
